This note sets out measurements from patent publication US5243042A, “1-thiaguanosine and process for preparing oxanosine and 1-thiaguanosine” (Hoffmann-La Roche Inc., priority 1990, dated 1993).

Values after ≈ are worked out from the molar mass of the structure shown.

Assay in all cases: MIC by agar dilution method, minimal agar medium
What all share (type): cell-based

In one assay the test system is E. coli 257. As to conditions: Escherichia coli, over-night incubation at 36° C., read-out: MIC (minimum inhibitory concentration). The procedure: (§1) To avoid possible antimetabolite reversal, a minimal agar medium^2 was employed. Inoculum was grown over-night at 36° C. in minimal broth medium and diluted a hundred-fold before use. Agar plates containing a serial dilution of the compounds of formula Ia were inoculated using a Steer's replicator. Approximately 3 μL was applied per spot. MICs were recorded after over-night incubation at 36° C.
(§2) ^1 Barry, A. L., Procedure for Testing Antimicrobial Agents in Agar Media: Theoretical Considerations, p. 1-26. In Victor Lorian (Ed.), Antibiotics in Laboratory Medicine, 2nd ed. The Williams & Wilkins Co., Baltimore.
(§3) ^2 Davis, B. D.; Mingioli, E. S. J. BACTERIOL. 1950, 60, 17-28.
(§4) The minimum inhibitory concentrations of 1-thiaguanosine, the compound of formula Ia, against various bacteria were as follows: […]

Another assay relates to E. coli 2721B. The conditions noted are these: Escherichia coli, over-night incubation at 36° C., read-out: MIC (minimum inhibitory concentration). The procedure: as §1, §2, §3, §4
The next assay deals with E. coli 94. The conditions noted are these: Escherichia coli, over-night incubation at 36° C., read-out: MIC (minimum inhibitory concentration). The procedure: as §1, §2, §3, §4
In the next assay the test system is E. coli ATCC 25922. The conditions noted are these: Escherichia coli, ATCC25922, over-night incubation at 36° C., read-out: MIC (minimum inhibitory concentration). The procedure:
as §1, §2, §3, §4

Another assay has as its system E. coli B. The conditions noted are these: Escherichia coli, over-night incubation at 36° C., read-out: MIC (minimum inhibitory concentration). The procedure:
as §1, §2, §3, §4

The test system of another assay is Prov. rettgeri ATTC 9250. The conditions noted are these: Providencia rettgeri, ATTC9250, over-night incubation at 36° C., read-out: MIC (minimum inhibitory concentration). The procedure:
as §1, §2, §3, §4

Assay [1] relates to S. typhimurium ATTC 13311. As to conditions: Salmonella enterica, over-night incubation at 36° C., read-out: MIC (minimum inhibitory concentration). The procedure: as §1, §2, §3, §4
The next assay relates to S. typhimurium LT-2. As to conditions: Salmonella enterica, over-night incubation at 36° C., read-out: MIC (minimum inhibitory concentration). The procedure:
as §1, §2, §3, §4

Consider `Nc1nc2c(ncn2[C@@H]2O[C@H](CO)[C@@H](O)[C@H]2O)c(=O)s1` [1-thiaguanosine, 5-amino-3-(β-D-ribofuranosyl)imidazo[4,5-d][1,3]thiazin-7(3H)-one], for which the MIC stood at 16 µg/mL (≈ 53.3 µM) with E. coli 257; 128 µg/mL (≈ 426 µM) in the assay with E. coli 2721B; 32 µg/mL (≈ 107 µM) in the assay on E. coli 94; 128 µg/mL (≈ 426 µM) in the assay on E. coli ATCC 25922; 128 µg/mL (≈ 426 µM) in the assay on E. coli B; 4 µg/mL (≈ 13.3 µM) in the assay with Prov. rettgeri ATTC 9250. The MIC (in assay [1]; with S. typhimurium LT-2) was 8 µg/mL (≈ 26.6 µM) throughout.
